In patent US20160221974A1, “SODIUM CHANNEL MODULATORS FOR THE TREATMENT OF PAIN AND DIABETES” (CHROMOCELL CORPORATION, priority 2013, published 2016):

Columns and labels:
[1] = system: Partial Sciatic Nerve Ligation (PSNL) model; assay: Partial Sciatic Nerve Ligation (PSNL) model, behavioral tests; format: in vivo, male Sprague-Dawley rats; settings: oral route, relative to vehicle control, measured 30 minutes post dose
Description: 250-350 g male Sprague-Dawley rats from appropriate animal resources were anesthetized with 2.5% isoflurane. A hind leg was shaved, and the skin was sterilized with 0.5% iodine and 75% alcohol. All surgical instruments were sterilized before surgery and between animals. An incision (1 cm) was made at the middle of the thigh in parallel with the muscle and sciatic nerve distribution. The muscle was exposed and dissected at the joint of two muscles (biceps femoris) indicated by the light colored (white) fascia line. The sciatic nerve was just beneath the muscle and was hooked out using an 18-20 G feeding needle (90 degree curved); the sciatic nerve was flat on the feeding needle and approximately one-half the diameter of the nerve is tightly ligated with 7-0 silk suture. A response of the injured leg twitch indicates the success of ligation. After checking hemostasis, bupivicaine 0.1-0.2 ml (0.125%) was given at the incision area, the muscle and the adjacent fascia are closed with 5-0 absorbable sutures. The skin was sutured with absorbable suture and tissue glue. The control group using sham surgery animals (about 8-10 animals) underwent the same surgical procedure but with no nerve ligation. Animals were returned to their home cage after recovery from anesthesia.
The analgesic effect of the test compound was expressed as a percent recovery (% Recovery) relative to the sham control group baseline and calculated according to the formula:
% Recovery=100%−{[(sham mean−test compound mean)/(sham mean−vehicle mean)]×100%}
wherein “sham mean” refers to average score in the sham-operated group; “test compound mean” refers to average score in the PSNL-group (animals with partial sciatic nerve ligation) or diabetic group (animals treated with STZ) treated with a test compound; “vehicle mean” refers to average score in the PSNL-group or diabetic group treated with vehicle only. The above formula was used to obtain data for the following in vivo behavioral tests.
The following behavioral tests were conducted (i.e., plantar test, paw pressure test, and von Frey test) started on day 3 and thereafter once weekly following surgery or use of a diabetic inducer. […]
Rats were placed on the glass surface of a thermal testing apparatus (Model 336, IITC/Life Science Instruments, Woodland Hills, Calif.) and were allowed to acclimate for 10 min before testing on the glass surface at room temperature. […] The paw withdrawal latency was recorded by a digital timer. The thermal threshold was determined as the mean withdrawal latency from two to three consecutive trials of both hindpaws. […]
Animals were placed under clear plastic boxes above a wire mesh floor, which allowed full access to the paws. […] Mechanical paw withdrawal thresholds (PWTs) were measured with the up-down testing paradigm. […]

[2] = system: rat streptozotocin-induced model for diabetes; assay: Evaluation of Anti-Diabetic Effect in In Vivo Model of Diabetes (chronic dosing, STZ rats)
Procedure: 250-350 g male Sprague-Dawley rats from appropriate animal resources were used. Type I diabetes was induced by a single injection, (intraperitoneally, intravenously or intramuscularly) of 50-100 mg/kg of streptozotocin (STZ, Sigma Chemicals, St. Louis, Mo. or VWR) freshly dissolved in sodium citrate (0.01 M, pH 4.5). Sham animals were given either saline or same vehicle injection. Following a wait time of about two days, inducement of diabetes was confirmed in STZ-injected rats by measuring the plasma glucose concentrations in blood samples from the tail vein after a fast of 6 hours. The glucose level was assayed using a mini glucose monitor (kit for AlphaTRAK 2 meter, available from Abbott Laboratories). Screening for hyperglycemia in STZ-injected animals was done, with only animals with a final blood glucose level ≧300 mg/dl being selected for the study. Glucose levels in the sham animals remained normal. Other parameters (water intake, food intake, and bodyweight) were monitored before the treatment with a test compound and after the cessation of the treatment.
A Compound provided herein is tested in the rat STZ model of diabetes by chronic administration of the Compound for at least 7 days to evaluate analgesic and antidiabetic effects of the Compound. The analgesic effect of the Compound can be evaluated using behavioral tests (e.g., von Frey test, plantar test, and paw pressure test described herein below). The anti-diabetic effect of the Compound can be evaluated based on the improvement in the glucose level, food intake, water intake in the compound treated group compared to the untreated vehicle group and the normal, non-diabetic sham control group.
Diabetes mellitus was induced in rats as described in paragraph [00327] above.
The baseline glucose levels, daily food and water intake and behavioral tests (von Frey, paw pressure and plantar tests) were measured for each animal once weekly for 28 weeks, and once every 2-4 weeks for an additional 28-30 weeks. At a selected week (started from week 6) for a compound test, diabetic rats were divided into two test groups: a vehicle control group and a test compound treated group (n=10 each group). A sham group (saline only without STZ i.p. injection, n=10) was added as a normal, non-diabetic control group. To minimize animal stress associated with repeated daily handling, the compound treated diabetic group of animals received the test compound at a daily dose of 60 mg/kg in their drinking water containing 2% PEG600 and 1% glycofurol (the test compound concentration in the drinking water was based on the individual animal's average daily water consumption as determined the pre-dosing period, which averaged 0.1-0.11 mg/ml). The vehicle control group received drinking water containing 2% PEG600 and 1% glycofurol without the test compound. The treatment continued for 9 days. On day 10 drinking water with test compound or vehicle (2% PEG600 and 1% glycofurol) was replaced with plain drinking water in all groups. The monitoring of glucose levels, food and water intake as well as behavior tests continued for additional 28-30 weeks. […] A gradual, significant reversal of up to 90% of mechanical allodynia (von Frey test) was achieved after 9 days of treatment.
FIGS. 1-3 show food intake, glucose level, and water intake, respectively, for the vehicle control group, the test compound treated group (compound 49, 60 mg/kg/day), and the sham group. […] The significant reduction of food intake, glucose level, and water intake of the compound treated group compared to the vehicle control group continues through week 52. […] Since the standard deviation in the sham groups are less than 5%, no error bars are shown.

[3] = diabetic rats, 60 mg/kg/day in drinking water for 9 days
[4] = measured on day 11, two days after compound withdrawal

SMILES: NC(=O)CNCCCc1cc(Cl)ccc1Oc1cc(F)c(S(=O)(=O)Nc2cscn2)cc1Cl [Compound 49, 2-((3-(5-chloro-2-(2-chloro-5-fluoro-4-(N-(thiazol-4-yl)sulfamoyl)phenoxy)phenyl)propyl)amino)acetamide]
- effect in the tactile allodynia test [1]: no significant effect
- food intake ([2]; diabetic rats, 60 mg/kg/day for 9 days, compared to vehicle control group, continues through week 52 (FIG. 1)): significantly reduced
- glucose level ([2]; diabetic rats, 60 mg/kg/day for 9 days, compared to vehicle control group, continues through week 52 (FIG. 2)): significantly reduced
- water intake ([2]; diabetic rats, 60 mg/kg/day for 9 days, compared to vehicle control group, continues through week 52 (FIG. 3)): significantly reduced
- mechanical pain (paw pressure test) [2, 3]: rapid and sustained improvement
- thermal pain (plantar test) [2, 3]: rapid and sustained improvement
- tachyphylaxis ([2]; diabetic rats, 60 mg/kg/day in drinking water for 9 days, paw pressure and plantar tests): no tachyphylaxis
- reversal of mechanical allodynia (von Frey test) ([2]; diabetic rats, 60 mg/kg/day in drinking water, after 9 days of treatment): up to 90%
- time allodynia threshold (von Frey test) stayed significantly above the pretreatment level baseline after compound withdrawal ([2]; diabetic rats, after 9 days of 60 mg/kg/day): up to 5 days
- general appearance and/or health ([2]; diabetic rats, after treatment with 60 mg/kg/day stopped on day 9): improvements in general appearance and/or health
- paw pressure test threshold after compound withdrawal [2, 4]: returned to the pretreatment baseline
- plantar test threshold after compound withdrawal [2, 4]: returned to the pretreatment baseline
